One series deals with BMS cells. Put plainly: Effect of FB1 and AP1 on maize tissue cultured cells (Black Mexican Sweet, BMS). It counts as cell-based. The settings on record: for concentration at which growth of BMS cells was inhibited: 1 week, liquid culture, 96-well plates. The protocol:
FB1 or AP1 at various concentrations was added to suspensions of BMS cells growing in liquid culture medium in 96-well polystyrene plates. After 1 week the cell density in wells was observed under low power magnification and growth of toxin-treated wells was compared to control wells that received water. […] This represents an approximate 100-fold difference in toxicity to maize tissue cultured cells. […] AP1 was not tested in that study, however.

A further series has as its system APAO. In words: APAO activity of crude cell-free extract, TLC. In kind it is biochemical, Exophiala spinifera. The protocol: For analysis of APAO activity, an alternative method was used. Equal volumes of sample and ^14C-AP1 (1 mg/ml, pH 8, 50 mM sodium phosphate) were incubated at room temperature for one to six days. Analytical thin-layer chromatography was then carried out on C60 HPK silica gel plates (Whatman #4807-700; 10×10 cm; 0.2 mm thick). After application of from 0.1 to 2 μl of aqueous sample, the plates were air-dried and developed in CHCl3:MeOH:CH3COOH:H20 (55:36:8:1). Plates were then air dried, and exposed to Phosphorlmager screen (Molecular Dynamics) or autoradiographic film. A Storm™ Phosphorlmager (Molecular Dynamics) was used to scan the image produced on the screen.
A cell-free extract that contains the deaminase activity was obtained by subjecting substrate-induced Exophiala spinifera cells to disruption using a Bead Beater™ in 50 mM Na-phosphate, pH 8.0, and recovering the cell-free supernatant by centrifugation and 0.45 micron filtration. Catabolic activity is assayed by incubating extracts with AP1 (hydrolyzed fumonisin BI backbone) or “^4C-labelled AP1 with the extract and evaluating by TLC on C18 or C60 silica. […] Other amine-containing substrates were tested for modification by the crude extract. […] Preparative amounts of the product, named 2-OP, have also been purified and analyzed by C13 nmr.

For another series, the system named is tomato. Particulars: cited from earlier work.
Another series concerns Lemna tissues. Particulars: AP1 versus FB1; cited from earlier work.
Another series relates to Maize coleoptiles. Put plainly: Effect of FB1 and AP1 on maize coleoptiles. It counts as cell-based. More on the design: key to Injury of maize coleoptiles: + = brown necrotic discoloration of coleoptile; − = no symptoms (same as water control). Particulars: for Injury of maize coleoptiles: 2 days dark 28° C., then 3 days light. The protocol:
Maize coleoptiles from 4 day dark-grown germinated maize seeds were excised above the growing point and placed in 96-well microtiter plates in the presence of 60 microliters of sterile distilled water containing FB1 or AP1 at approximately equimolar concentrations of 1.5, 0.5, 0.15, 0.05, 0.015, 0.005, 0.0015, or 0.0005 millimolar, along with water controls. After 2 days in the dark at 28° C. the coleoptiles were placed in the light and incubated another 3 days.

The subject of the next series is APAO enzyme. It counts as biochemical, Exophiala spinifera. Particulars: for RATE: 1 mM substrate, pH 8.0, room temperature. The protocol: The following assay was used to determine the substrate specificity of the APAO enzyme. […] The APAO enzyme was recombinant enzyme produced,as GST fusion in E. coli, purified over a glutathione affinity column and cleaved with thrombin to remove the GST. All components were mixed at room temperature. The initial rate was determined in a spectrophotometer at 572 nm over one minute by absorbance units/second (BLANK). Ten microliters of APAO at 70 ug/ml was added and mixed. The initial rate was again determined at 572 nm over one minute in absorbance units/second (SAMPLE). The rates were converted to absorbance units/minute. The BLANK value was subtracted from the SAMPLE value. The absorbance units were converted to μM H2O2 wherein 1 μM H2O2 equals 0.138 absorbance units at pH 8.0.

The test system of the next series is maize callus. Particulars: solid medium; cited from earlier work.
Series [1] in a line: Mutated APAO lysates from E coli, Amplex Red assay, substrate AP1. It counts as biochemical. Particulars: Glyc(−) APAO lysates from E coli.
The nature of series [2]: Mutated APAO lysates from E coli, Amplex Red assay, substrate FB1. In kind it is biochemical.
Series [3] in a line: Mutated APAO lysates from E coli, Amplex Red assay, substrate AP1. It counts as biochemical. The protocol: The following assay was used to determine the substrate specificity of the APAO enzyme. Reaction mix: 436 μl of 200 mM Na-phosphate, pH8.0; 50 μl substrate (10 mM); 2 μl Amplex Red (1 mg in 200 μl DMSO); and 2 μof Peroxidase (5000 U/ml). The APAO enzyme was recombinant enzyme produced,as GST fusion in E. coli, purified over a glutathione affinity column and cleaved with thrombin to remove the GST. All components were mixed at room temperature. The initial rate was determined in a spectrophotometer at 572 nm over one minute by absorbance units/second (BLANK). Ten microliters of APAO at 70 ug/ml was added and mixed. The initial rate was again determined at 572 nm over one minute in absorbance units/second (SAMPLE). The rates were converted to absorbance units/minute. The BLANK value was subtracted from the SAMPLE value. The absorbance units were converted to μM H2O2 wherein 1 μM H2O2 equals 0.138 absorbance units at pH 8.0.
The APAO molecules mutated at specific cysteines were tested in a bacterial expression system using the previously described Amplex Red assay. The results can be seen in the table below entitled “Cys(−) APAO lysates from E. coli.” The mutated APAO molecules can then be tested in maize, linked to a signal peptide, as previously described. Either one of the cysteines or two or three together could be mutated to serines without any measured loss in APAO enzyme activity of the E coli-expressed enzyme. […] The mutated versions of APAO operably linked to a signal sequence, which retain function when expressed as recombinant fusion proteins in E. coli may also provide additional stability or foldability when expressed in plants or other secretion expression systems.

[4] abbreviates: Cys(−) APAO lysates from E coli.
Setting [5] is: Glyc(−) APAO lysates from E coli.
Where [6] appears, read: Triple Cys(−) APAO lysates from E coli.

For the molecule `CCCC[C@@H](C)[C@@H](O)[C@@H](O)C[C@@H](C)C[C@H](O)CCCC[C@@H](O)C[C@H](O)[C@H](C)N` [AP1], the “concentration at which growth of BMS cells was inhibited” value with BMS cells turned out to be 40000 nM. Further, the “difference in toxicity to maize tissue cultured cells” value with BMS cells (AP1 versus FB1) was about 100 fold. Moreover, in the series on APAO (pH 9), the “time to complete conversion to 2-OP” value amounted to 30 min. Moreover, the “reduction in toxicity to tomato by AP1 versus FB1” value in the series on tomato is on record as about 100 fold. Besides, the “less toxic than FB1 in Lemna tissues” value in the series on Lemna tissues is recorded as “approx. 40 fold”. Besides, the “Injury of maize coleoptiles” value is on record as “+” in the series with Maize coleoptiles (1.5 mM); “−” in the series with Maize coleoptiles (.0005 mM); “−” in the series with Maize coleoptiles (.0015 mM); “−” in the series with Maize coleoptiles (.005 mM); “−” in the series on Maize coleoptiles (.015 mM); “−” with Maize coleoptiles (.05 mM). In addition, the “Injury of maize coleoptiles” value in the series on Maize coleoptiles (.15 mM) and with Maize coleoptiles (.5 mM) was “−” throughout. For the same molecule, the “difference in toxicity between FB1 and AP1 to maize coleoptiles” value in the series with Maize coleoptiles (AP1 versus FB1) is given as at least 30 fold. In addition, in the series with APAO enzyme, the RATE is 0.8876 μM H2O2/min.
Regarding `CCCC[C@@H](C)[C@@H](OC(=O)C[C@@H](CC(=O)O)C(=O)O)[C@H](C[C@@H](C)C[C@H](O)CCCC[C@@H](O)C[C@H](O)[C@H](C)N)OC(=O)C[C@@H](CC(=O)O)C(=O)O` [FB1, fumonisin B1], the “concentration at which growth of BMS cells was inhibited” value in the series on BMS cells turned out to be 400 nM. Further, in the series with APAO (crude cell-free extract of induced Exophiala spinifera, TLC), the “modification by the crude extract” value was “not modified”. Further, the “concentration giving significant inhibition of maize callus” value in the series on maize callus was 1400 nM. The “Injury of maize coleoptiles” value is listed as “+” in the series on Maize coleoptiles (1.5 mM); “−” in the series on Maize coleoptiles (.0005 mM); “−” in the series with Maize coleoptiles (.0015 mM); “−” in the series on Maize coleoptiles (.005 mM); “+” in the series with Maize coleoptiles (.05 mM); “+” in the series with Maize coleoptiles (.15 mM). The “Injury of maize coleoptiles” value in the series with Maize coleoptiles (.5 mM) is reported as “+”. Further, the RATE in the series with APAO enzyme is given as 0.1429 μM H2O2/min.

B1: APAO: amino polyol amine oxidase from Exophiala spinifera, ATCC 74269 (SEQ ID NO: 23) (protein, listed as Exophiala spinifera)
chain: MALAPSYINPPNVASPAGYSHVGVGPDGGRYVTIAGQIGQDASGVTDPAYEKQVAQAFANLRACLAAVGATSNDVTKLNYYIVDYAPSKLTAIGDGLKATFALDRLPPCTLVPVSALSSPEYLFEVDATALVPGHTTPDNVADVVVVGAGLSGLETARKVQAAGLSCLVLEAMDRVGGKTLSVQSGPGRTTINDLGAAWINDSNQSEVSRLFERFHLEGELQRTTGNSIHQAQDGTTTTAPYGDSLLSEEVASALAELLPVWSQLIEEHSLQDLKASPQAKRLDSVSFAHYCEKELNLPAVLGVANQITRALLGVEAHEISMLFLTDYIKSATGLSNIFSDKKDGGQYMRCKTGMQSICHAMSKELVPGSVHLNTPVAEIEQSASGCTVRSASGAVFRSKKVVVSLPTTLYPTLTFSPPLPAEKQALAENSILGYYSKIVFVWDKPWWREQGFSGVLQSSCDPISFARDTSIDVDRQWSITCFMVGDPGRKWSQQSKQVRQKSVWDQLRAAYENAGAQVPEPANVLEIEWSKQQYFQGAPSAVYGLNDLITLGSALRTPFKSVHFVGTETSLVWKGYMEGAIRSGQRGAAEVVASLVPAA
With B1, the “AP1 catabolic activity after heating” value in the series on APAO (following 30 min. at 65° C. or 100° C.) is “no AP1 catabolic activity remained”. In the series with APAO (partially purified APAO enzyme from Exophiala spinifera), the “activity on intact FB1” value is reported as “little or no activity”. Further, the Conclusion entry in series [1] is “Active (wild type)”; in [2] (setting [4]), “Slightly active (wt)”; in [2] (setting [5]), “Slightly active (wt)”; in series [2] (setting [6]), “Slightly active (wt)”; in series [3] (setting [4]) it was “Active (wild type)”; in [3] (setting [6]) it was “Active (wild type)”. Also, the “M H2O2/min” value is on record as 1.92 μM H2O2/min in series [1]; 0.11 μM H2O2/min in series [2] (setting [4]); 0.12 μM H2O2/min in [2] (setting [5]); 0.27 μM H2O2/min in [2] (setting [6]); 2.14 μM H2O2/min in series [3] (setting [4]); 1.16 μM H2O2/min in series [3] (setting [6]). The “activity on intact FB1 and other B-series fumonisins” value in the series with APAO enzyme (recombinant APAO enzyme expressed in E. coli) is recorded as “significant but reduced activity”.

These data come from patent US6943279B1, “Amino polyol amine oxidase polynucleotides and related polypeptides and methods of use” (priority 1999, dated 2005).
